What was measured:
Assay type in all cases: functional
Prevotella nigrescens = experiment: Antibacterial activity against Prevotella nigrescens by CLSI M11-A6 agar dilution method
Prevotella corporis = experiment: Antibacterial activity against Prevotella corporis by CLSI M11-A6 agar dilution method
Ruminococcus sp. = experiment: Antibacterial activity against Ruminococcus sp. by CLSI M11-A6 agar dilution method
[1] = test system: Parabacteroides distasonis; experiment: Antibacterial activity against Parabacteroides distasonis by CLSI M11-A6 agar dilution method
[2] = test system: Bifidobacterium pseudolongum; experiment: Antibacterial activity against Bifidobacterium pseudolongum by CLSI M11-A6 agar dilution method
Hoylesella loescheii = experiment: Antibacterial activity against Prevotella loescheii by CLSI M11-A6 agar dilution method
Prevotella oris = experiment: Antibacterial activity against Prevotella oris by CLSI M11-A6 agar dilution method; settings: Segatella oris
Blautia luti = experiment: Antibacterial activity against Ruminococcus luti by CLSI M11-A6 agar dilution method
Clostridium disporicum = experiment: Antibacterial activity against Clostridium disporicum by CLSI M11-A6 agar dilution method
Clostridium glycolicum = experiment: Antibacterial activity against Clostridium glycolicum by CLSI M11-A6 agar dilution method; settings: Terrisporobacter glycolicus
Ruminococcus torques = experiment: Antibacterial activity against Ruminococcus torques by CLSI M11-A6 agar dilution method; settings: Mediterraneibacter torques
Anaerococcus prevotii = experiment: Antibacterial activity against Anaerococcus prevotii by CLSI M11-A6 agar dilution method
Ruminococcus lactaris = experiment: Antibacterial activity against Ruminococcus lactaris by CLSI M11-A6 agar dilution method
Clostridium bartlettii = experiment: Antibacterial activity against Clostridium bartlettii by CLSI M11-A6 agar dilution method; settings: Intestinibacter bartlettii
[3] = test system: Enterocloster clostridioformis; experiment: Antibacterial activity against Clostridium clostridioforme by CLSI M11-A6 agar dilution method
Ruminococcus gnavus = experiment: Antibacterial activity against Ruminococcus gnavus by CLSI M11-A6 agar dilution method; settings: Mediterraneibacter gnavus
Bifidobacterium bifidum = experiment: Antibacterial activity against Bifidobacterium bifidum by CLSI M11-A6 agar dilution method
Phocaeicola vulgatus = experiment: Antibacterial activity against Bacteroides vulgatus by CLSI M11-A6 agar dilution method
Prevotella bivia = experiment: Antibacterial activity against Prevotella bivia by CLSI M11-A6 agar dilution method
Streptococcus anginosus = experiment: Antibacterial activity against Streptococcus anginosus by CLSI M11-A6 agar dilution method
Clostridium bolteae = experiment: Antibacterial activity against Clostridium bolteae by CLSI M11-A6 agar dilution method; settings: Enterocloster bolteae
Fusobacterium mortiferum = experiment: Antibacterial activity against Fusobacterium mortiferum by CLSI M11-A6 agar dilution method
[4] = test system: Clostridium sporosphaeroides; experiment: Antibacterial activity against Clostridium sporosphaeroides by CLSI M11-A6 agar dilution method; settings: Faecalispora sporosphaeroides
Prevotella intermedia = experiment: Antibacterial activity against Prevotella P intermedia by CLSI M11-A6 agar dilution method
Actinomyces naeslundii = experiment: Antibacterial activity against Actinomyces naeslundii by CLSI M11-A6 agar dilution method
[5] = test system: Paraclostridium bifermentans; experiment: Antibacterial activity against Clostridium bifermentans by CLSI M11-A6 agar dilution method
[6] = test system: Paeniclostridium sordellii; experiment: Antibacterial activity against Clostridium sordellii by CLSI M11-A6 agar dilution method; settings: Paraclostridium sordellii
Clostridium beijerinckii = experiment: Antibacterial activity against Clostridium beijerinckii by CLSI M11-A6 agar dilution method
Parvimonas micra = experiment: Antibacterial activity against Peptostreptococcus micros by CLSI M11-A6 agar dilution method
Thomasclavelia ramosa = experiment: Antibacterial activity against Clostridium ramosum by CLSI M11-A6 agar dilution method
Bifidobacterium dentium = experiment: Antibacterial activity against Bifidobacterium dentium by CLSI M11-A6 agar dilution method
[7] = test system: Bacteroides thetaiotaomicron; experiment: Antibacterial activity against Bacteroides thetaiotaomicron by CLSI M11-A6 agar dilution method
Prevotella disiens = experiment: Antibacterial activity against Prevotella P disiens by CLSI M11-A6 agar dilution method
Holdemania filiformis = experiment: Antibacterial activity against Holdemania filiformis by CLSI M11-A6 agar dilution method
[Clostridium] innocuum = Antibacterial activity against Clostridium innocuum by CLSI M11-A6 agar dilution method
[8] = test system: Clostridium paraputrificum; experiment: Antibacterial activity against Clostridium paraputrificum by CLSI M11-A6 agar dilution method
Ruminococcus albus = experiment: Antibacterial activity against Ruminococcus albus by CLSI M11-A6 agar dilution method; settings: Hominimerdicola alba
Clostridium subterminale = experiment: Antibacterial activity against Clostridium subterminale by CLSI M11-A6 agar dilution method

CCC[C@@H]1C[C@@H](C(=O)N[C@@H]([C@H]2O[C@H](SC)[C@H](O)[C@@H](O)[C@H]2O)[C@H](C)Cl)N(C)C1 [CLINDAMYCIN]
> 128 µg/mL: MIC90 (Ruminococcus sp.) | MIC90 (Anaerococcus prevotii) | MIC50 (Phocaeicola vulgatus) | MIC90 (Phocaeicola vulgatus) | MIC90 (Parvimonas micra) | MIC90 [7] | MIC90 ([Clostridium] innocuum)
0.5 µg/mL: MIC90 (Streptococcus anginosus) | MIC50 (Clostridium subterminale)
0.25 µg/mL: MIC90 (Ruminococcus gnavus)
2 µg/mL: MIC50 [1] | MIC90 (Blautia luti) | MIC90 (Ruminococcus torques) | MIC90 (Ruminococcus lactaris) | MIC90 [3] | MIC50 (Clostridium bolteae) | MIC90 (Ruminococcus albus)
≤ 0.12 µg/mL: MIC (Prevotella nigrescens) | MIC50 (Prevotella nigrescens) | MIC90 (Prevotella nigrescens) | MIC (Prevotella corporis) | MIC50 (Prevotella corporis) | MIC90 (Prevotella corporis) | MIC50 [2] | MIC (Hoylesella loescheii) | MIC50 (Hoylesella loescheii) | MIC90 (Hoylesella loescheii) | MIC (Prevotella oris) | MIC50 (Prevotella oris) | MIC90 (Prevotella oris) | MIC50 (Blautia luti) | MIC50 (Ruminococcus torques) | MIC50 (Ruminococcus lactaris) | MIC50 (Ruminococcus gnavus) | MIC50 (Bifidobacterium bifidum) | MIC (Prevotella bivia) | MIC50 (Prevotella bivia) | MIC90 (Prevotella bivia) | MIC (Prevotella intermedia) | MIC50 (Prevotella intermedia) | MIC90 (Prevotella intermedia) | MIC50 (Actinomyces naeslundii) | MIC50 (Bifidobacterium dentium) | MIC (Prevotella disiens) | MIC50 (Prevotella disiens) | MIC90 (Prevotella disiens) | MIC50 (Holdemania filiformis) | MIC50 (Ruminococcus albus)
8 µg/mL: MIC90 (Thomasclavelia ramosa) | MIC90 (Clostridium subterminale)
64 µg/mL: MIC90 [1]
1 µg/mL: MIC90 [2] | MIC90 (Bifidobacterium bifidum) | MIC50 (Fusobacterium mortiferum) | MIC90 (Actinomyces naeslundii) | MIC90 (Bifidobacterium dentium) | MIC90 (Holdemania filiformis) | MIC50 ([Clostridium] innocuum)
32 µg/mL: MIC90 (Fusobacterium mortiferum)
4 µg/mL: MIC90 (Clostridium disporicum) | MIC90 (Clostridium glycolicum) | MIC90 (Clostridium bartlettii) | MIC90 (Clostridium bolteae) | MIC90 [4] | MIC90 [5] | MIC90 [6] | MIC90 (Clostridium beijerinckii) | MIC50 (Thomasclavelia ramosa) | MIC50 [7] | MIC90 [8]

Source: ChEMBL document CHEMBL1671662, “In vitro activities of telavancin and six comparator agents against anaerobic bacterial isolates” (2009)
